Values joined by “and” are separate entries in the source; they are usually repeats but may differ in a detail not shown here. Identical values can stand only once. Counter-ions that a name gives are not always drawn.
Assays:
[1] = molecular target: h5-HT2B (Homo sapiens, UniProt P41595); experiment: IP1 functional assay, antagonist; type: cell-based; settings: read-out: % Inhibition of Control Agonist Response
[2] = molecular target: hMOR (Homo sapiens, UniProt P35372); experiment: cell-based
[3] = molecular target: h5-HT2A (Homo sapiens, UniProt P28223); experiment: IP1 functional assay, agonist; type: cell-based; settings: up to 10 µM
Chain of h5-HT2A (P28223 whole entry): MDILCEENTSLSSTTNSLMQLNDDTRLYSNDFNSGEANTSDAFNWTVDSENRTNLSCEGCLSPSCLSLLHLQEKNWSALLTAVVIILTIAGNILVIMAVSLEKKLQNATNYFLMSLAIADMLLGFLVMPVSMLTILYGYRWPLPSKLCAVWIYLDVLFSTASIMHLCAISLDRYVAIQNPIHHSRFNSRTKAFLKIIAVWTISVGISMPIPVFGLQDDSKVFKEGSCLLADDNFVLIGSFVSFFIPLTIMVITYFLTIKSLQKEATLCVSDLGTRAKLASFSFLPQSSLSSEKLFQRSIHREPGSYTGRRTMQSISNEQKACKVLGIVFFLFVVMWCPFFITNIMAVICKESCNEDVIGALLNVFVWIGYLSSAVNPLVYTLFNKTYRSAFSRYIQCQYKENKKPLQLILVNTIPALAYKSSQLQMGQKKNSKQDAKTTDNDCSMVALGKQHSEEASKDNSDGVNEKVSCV

[4] = test system: male Fisher F-344 rats; experiment: Morphine intravenous self-administration; type: in vivo, rat; settings: for self-administration per session, individual animals (Fig. S9a): 40 mg/kg
[5] = molecular target: T1, hKOR (Homo sapiens, UniProt P41145); experiment: Nanobody Nb33 sensor recruitment BRET assay; type: cell-based
T1 construct: expressed in transfected cells; host or cells: HEK-293T, transient (PEI)
T1 sequence (P41145 whole entry): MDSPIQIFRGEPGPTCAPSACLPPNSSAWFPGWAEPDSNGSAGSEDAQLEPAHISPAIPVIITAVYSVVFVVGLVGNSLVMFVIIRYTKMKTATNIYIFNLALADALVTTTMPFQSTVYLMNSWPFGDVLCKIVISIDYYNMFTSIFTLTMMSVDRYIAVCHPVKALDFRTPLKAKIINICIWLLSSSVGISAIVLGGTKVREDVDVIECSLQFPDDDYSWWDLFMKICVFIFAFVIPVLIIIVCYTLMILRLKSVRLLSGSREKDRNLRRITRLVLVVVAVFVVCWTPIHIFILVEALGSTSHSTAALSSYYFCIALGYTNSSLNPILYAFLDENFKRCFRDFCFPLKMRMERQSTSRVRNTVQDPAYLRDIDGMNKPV

[6] = human
[7] = molecular target: T1, hKOR; experiment: G protein activation BRET assay; type: cell-based; settings: for response, Fig. S5b concentration-response point (replicates): Log [Drug]
[8] = molecular target: T2, rKOR (Rattus norvegicus, UniProt P34975); experiment: Nanobody Nb33 sensor recruitment BRET assay; type: cell-based; settings: for response, Fig. S5c concentration-response point (replicates): Log [Drug]
T2 construct: signal peptide (N); expressed in transfected cells; host or cells: HEK-293T, transient (PEI)
T2 sequence (P34975 whole entry): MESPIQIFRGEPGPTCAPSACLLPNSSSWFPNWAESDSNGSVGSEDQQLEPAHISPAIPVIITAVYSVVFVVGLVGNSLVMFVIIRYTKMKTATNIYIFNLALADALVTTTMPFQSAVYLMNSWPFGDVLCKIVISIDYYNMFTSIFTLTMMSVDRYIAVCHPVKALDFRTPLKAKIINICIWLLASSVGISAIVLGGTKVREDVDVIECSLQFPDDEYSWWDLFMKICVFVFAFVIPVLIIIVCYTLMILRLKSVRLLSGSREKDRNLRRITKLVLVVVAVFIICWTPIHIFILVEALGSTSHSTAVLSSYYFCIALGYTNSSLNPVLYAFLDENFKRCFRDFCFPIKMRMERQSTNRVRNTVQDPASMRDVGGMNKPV

[9] = molecular target: T2, rKOR; experiment: G protein activation BRET assay (GαoB); type: cell-based; settings: for EC50: HEK-293T
[10] = molecular target: T3, mMOR (Mus musculus, UniProt P42866); experiment: G protein activation BRET assay; type: cell-based; settings: for Fig. S5h concentration-response data point: Log [Drug], single replicate values
T3 construct: expressed in transfected cells; host or cells: HEK-293T, transient (PEI)
T3 sequence (P42866 whole entry): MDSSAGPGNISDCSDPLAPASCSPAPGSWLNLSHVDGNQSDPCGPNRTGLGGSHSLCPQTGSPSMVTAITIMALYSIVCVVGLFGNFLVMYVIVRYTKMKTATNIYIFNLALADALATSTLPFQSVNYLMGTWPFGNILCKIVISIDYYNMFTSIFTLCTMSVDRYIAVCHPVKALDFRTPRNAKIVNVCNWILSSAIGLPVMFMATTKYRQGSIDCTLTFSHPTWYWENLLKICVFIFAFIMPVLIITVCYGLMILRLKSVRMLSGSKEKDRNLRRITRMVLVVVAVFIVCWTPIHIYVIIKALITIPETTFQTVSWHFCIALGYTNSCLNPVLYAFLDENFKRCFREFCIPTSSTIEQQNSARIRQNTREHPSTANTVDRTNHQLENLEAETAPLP

[11] = test system: male rats; experiment: Food maintained (operant) responding; type: in vivo, rat; settings: 40 mg/kg i.p.
Procedure: For food maintained responding studies, food access was restricted such that rats were maintained at 90% of their normal body weight until responding stabilized, at which point rats were provided 12–15 g of rodent chow in addition to the food pellets earned during the experimental session.
Rats were lever trained as described in the general methods. Responding was maintained as described with notable difference in timeout (TO) period 6 min and sessions lasting 2 h or until a maximum of 20 pellets was delivered. […] Responding was considered stable when variation in the number of reinforcers for three consecutive sessions was less than 20%. For the group receiving oxa-noribogaine, data were analyzed using a two-way ANOVA with Šidák’s multiple comparisons test for post hoc comparison.

[12] = 180 mg oral dose; cited from earlier work
[13] = test system: adult human primary ventricular myocytes; experiment: Cardiotoxicity (pro-arrhythmia) assay in adult human primary cardiomyocytes; type: cell-based; settings: for pro-arrhythmic potential: 0.1–10 µM

Chain of hMOR (P35372 whole entry): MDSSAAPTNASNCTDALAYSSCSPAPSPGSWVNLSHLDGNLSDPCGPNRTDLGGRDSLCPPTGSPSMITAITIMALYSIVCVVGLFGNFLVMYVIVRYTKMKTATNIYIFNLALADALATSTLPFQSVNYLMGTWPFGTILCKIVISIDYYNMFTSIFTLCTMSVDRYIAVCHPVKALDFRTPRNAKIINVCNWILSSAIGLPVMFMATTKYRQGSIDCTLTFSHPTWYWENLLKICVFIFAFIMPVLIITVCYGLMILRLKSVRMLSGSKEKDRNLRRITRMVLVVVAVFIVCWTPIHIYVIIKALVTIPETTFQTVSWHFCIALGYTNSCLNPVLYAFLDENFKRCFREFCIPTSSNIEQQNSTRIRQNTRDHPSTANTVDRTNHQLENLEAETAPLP
Chain of h5-HT2B (P41595 whole entry): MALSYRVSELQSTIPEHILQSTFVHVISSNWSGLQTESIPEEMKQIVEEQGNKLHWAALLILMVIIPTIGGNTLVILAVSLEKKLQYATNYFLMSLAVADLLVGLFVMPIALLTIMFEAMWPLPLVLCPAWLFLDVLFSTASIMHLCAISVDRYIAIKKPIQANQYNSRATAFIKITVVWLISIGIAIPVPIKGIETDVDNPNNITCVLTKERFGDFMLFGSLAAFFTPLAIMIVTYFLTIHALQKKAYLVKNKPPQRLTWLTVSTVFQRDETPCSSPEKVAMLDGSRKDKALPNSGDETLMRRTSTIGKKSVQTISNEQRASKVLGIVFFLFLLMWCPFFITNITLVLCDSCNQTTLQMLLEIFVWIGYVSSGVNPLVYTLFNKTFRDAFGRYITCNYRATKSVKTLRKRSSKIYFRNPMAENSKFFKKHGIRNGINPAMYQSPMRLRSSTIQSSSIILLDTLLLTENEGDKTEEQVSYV

CCC1CC2CC3c4[nH]c5ccc(O)cc5c4CCN(C2)C13 (stereo not drawn) [Noribogaine, Noribogaine hydrochloride]
inhibition at 10 µM ([1]; 1.00E-05 M): 10%
inhibition at 1 µM ([1]; 1.00E-06 M): 7%
EC50 [2]: 11.1 µM
Emax [2]: 57%
agonist activity at h5-HT2R [3]: No agonist activity
effect on morphine self-administration ([4]; 40 mg/kg i.p.): partial, but statistically significant, suppression of morphine intake on days 2 and 3, returning to pre-treatment level of morphine intake on day 5
self-administration per session, individual animals (Fig. S9a) ([4]; session 1): 0 (2×) and 4 (2×) and 8 and 6 (2×) and 2
self-administration per session, individual animals (Fig. S9a) ([4]; session 2): 7 and 19 and 24 and 41 and 27 (2×) and 15 (2×)
self-administration per session, individual animals (Fig. S9a) ([4]; session 3): 17 and 21 and 50 and 28
self-administration per session, individual animals (Fig. S9a) ([4]; session 5): 49 and 40 and 50 (2×) and 36 (2×) and 31 and 21
self-administration per session, individual animals (Fig. S9a) ([4]; session 6): 50 (5×) and 42 and 26 and 19
self-administration per session, individual animals (Fig. S9a) ([4]; session 7): 29 (2×) and 15 and 50 (4×) and 17
self-administration per session, individual animals (Fig. S9a) ([4]; session 8): 30 (2×) and 50 (4×) and 28 and 26
self-administration per session, individual animals (Fig. S9a) ([4]; session 9): 26 and 35 and 50 (3×) and 22 and 28 and 13
self-administration per session, individual animals (Fig. S9a) ([4]; session 10): 34 and 25 and 50 (3×) and 20 and 41 and 14
self-administration per session, individual animals (Fig. S9a) ([4]; session 11): 33 and 19 and 50 (3×) and 9 and 26 and 3
self-administration per session, individual animals (Fig. S9a) ([4]; session 12): 50 (5×) and 14 and 40 and 19
self-administration per session, individual animals (Fig. S9a) ([4]; session 13): 50 (3×) and 23 and 33 and 28
self-administration per session, individual animals (Fig. S9a) ([4]; session 14): 50 (3×) and 21 and 38 and 17
self-administration per session, individual animals (Fig. S9a) ([4]; session 15): 50
% effect at 100 µM [5]: < 3%
% Stability (4 h) [6]: 105%
% Unbound ([6]; plasma, pH 7.4): 40.1%
response, Fig. S5b concentration-response point (replicates) ([7]; M = -4): 63.4148 and 52.568 and 43.4303 and -3.268 and 15.5992 and -3.578 and 46.3729 and 68.2306 and 65.5059
response, Fig. S5b concentration-response point (replicates) ([7]; M = -5): 44.129 and 7.591 and 58.3969 and -7.944 and -3.52 and -16.5221 and 8.861 and 66.0772 and 47.0286
response, Fig. S5b concentration-response point (replicates) ([7]; M = -6): 20.3519 and 3.61 and -1.914 and -21.4522 and 4.635 and -8.327 and 2.307 and 50.686 and 6.38
response, Fig. S5b concentration-response point (replicates) ([7]; M = -7): -3.613 and 22.2417 and 10.4815 and -11.7203 and -7.426 and -8.634 and -0.3969 and 6.635 and -33.8028
response, Fig. S5b concentration-response point (replicates) ([7]; M = -8): -6.02 and -4.0285 and -3.934 and -14.0445 and 2.721 and -12.2464 and 2.029 and -16.111 and -2.683
response, Fig. S5b concentration-response point (replicates) ([7]; M = -9): 5.431 and -20.2939 and -8.392 and 0.6992 and -6.586 and -12.3198 and -2.633 and 36.0973 and 2.925
response, Fig. S5b concentration-response point (replicates) ([7]; M = -10): 4.023 and 14.614 and -14.1911 and -26.8111 and -11.2252 and 12.0579 and -0.5811 and 6.156 and 9.5717
response, Fig. S5b concentration-response point (replicates) ([7]; M = -11): -10.3398 and -7.2943 and -10.3521 and -20.7885 and 4.252 and -10.5358 and -2.026 and -5.486 and -20.474
Emax ([7]; normalized to Emax of U-50,488): 46%
response, Fig. S5c concentration-response point (replicates) ([8]; M = -4): 0.6832 and -2.533 and 1.849 and 9.706 and 9.178 and 4.549 and -7.153 and 2.312 and 4.8409
response, Fig. S5c concentration-response point (replicates) ([8]; M = -5): 9.7994 and 6.733 and 8.435 and 9.706 and 10.7702 and 15.0341 and 0.9856 and -0.8825 and 4.299
response, Fig. S5c concentration-response point (replicates) ([8]; M = -6): 9.626 and 6.623 and 8.559 and 3.312 and 9.163 and -0.7272 and 9.077 and 6.531 and 9.714
response, Fig. S5c concentration-response point (replicates) ([8]; M = -7): 8.087 and 5.264 and 16.9405 and 8.98 and 10.0186 and 11.1512 and 4.05 and 6.477 and 19.1494
response, Fig. S5c concentration-response point (replicates) ([8]; M = -8): 10.1716 and 9.452 and 9.651 and 4.904 and -0.3201 and 10.6815 and 14.8896 and 2.949 and 7.869
response, Fig. S5c concentration-response point (replicates) ([8]; M = -9): 2.743 and 3.189 and 8.9111 and 2.535 and 1.402 and 3.813 and 4.639 and -0.2876 and 6.5008
response, Fig. S5c concentration-response point (replicates) ([8]; M = -10): 4.986 and 10.7522 and 12.8464 and -2.314 and -2.554 and 4.868 and 5.9 and 1.688 and 15.6928
response, Fig. S5c concentration-response point (replicates) ([8]; M = -11): 8.177 and 6.107 and 7.7052 and 7.712 and 6.632 and -6.719 and 26.9849 and 11.0819 and 18.0666
% effect at 100 µM ([8]; at 100 µM): < 4%
EC50 [9]: 6.1 µM
EC50 ([9]; (95% CI)): 6.24 µM
Emax ([9]; normalized to Emax of U-50,488): 52%
Emax [10]: 19%
EC50 ([10]; (95% CI)): 9.11 µM
Fig. S5h concentration-response data point ([10]; M = -4): 24.8885 and 26.6264 and 27.7428 and 17.4963 and -8.212 and 30.4244 and 10.6283 and 6.222 and 21.9832
Fig. S5h concentration-response data point ([10]; M = -5): 8.23 and 17.0849 and 17.7259 and 22.4715 and 22.153 and 9.821 and 3.187 and 0.3566 and 4.1
Fig. S5h concentration-response data point ([10]; M = -6): 4.604 and 7.207 and -5.062 and 6.292 and -3.562 and -1.853 and 2.1627 and 6.968 and -3.361
Fig. S5h concentration-response data point ([10]; M = -7): 5.516 and -3.12 and 0.3751 and -1.392 and 9.617 and 0.0554 and -3.657 and -2.623 and -4.7725
Fig. S5h concentration-response data point ([10]; M = -8): 2.807 and -9.751 and -4.108 and 4.434 and 1.624 and 11.894 and 1.215 and 7.908 and -0.803
Fig. S5h concentration-response data point ([10]; M = -9): 3.672 and 14.0917 and -2.71 and 1.993 and 2.042 and -8.571 and -5.966 and 3.235 and -0.5438
Fig. S5h concentration-response data point ([10]; M = -10): 5.694 and 7.45 and -0.02465 and -4.39 and 8.693 and -12.0081 and -1.935 and 3.572 and 2.108
Fig. S5h concentration-response data point ([10]; M = -11): 0.01325 and 7.439 and 24.776 and 1.616 and -6.541 and -6.127 and 16.1632 and 10.3257 and 7.821
suppression of responding maintained by food on day 1 [11]: > 80%
QT prolongation [12]: > 500 ms
concentration with greater than 20% incidence of arrhythmia-associated events (considerable pro-arrhythmia risk) [13]: ≥ 1000 nM
Alternans % ([13]; 0.1 (µM)): 0%
Contraction Failure % ([13]; 0.1 (µM)): 0%
STV % ([13]; 0.1 (µM)): 0%
After-contraction % ([13]; 0.1 (µM), incidence of cells): 16.67%
pro-arrhythmic potential [13]: pro-arrhythmic potential by causing after-contractions and contraction failures
pro-arrhythmic potential ([13]; listed as noribogaine): concentration-dependent pro-arrhythmia risk
After-contraction % ([13]; 1 (µM)): 33.33%
Alternans % ([13]; 1 (µM)): 0%
Contraction Failure % ([13]; 1 (µM)): 0%
STV % ([13]; 1 (µM)): 0%
After-contraction % ([13]; 3.16 (µM)): 50%
Alternans % ([13]; 3.16 (µM)): 0%
Contraction Failure % ([13]; 3.16 (µM)): 16.67%
STV % ([13]; 3.16 (µM)): 0%
After-contraction % ([13]; 10 (µM)): 50%
Alternans % ([13]; 10 (µM)): 0%
Contraction Failure % ([13]; 10 (µM)): 16.67%
STV % ([13]; 10 (µM)): 0%

Source: article PMC11415492 (Nature Communications, 2024)
